Measurements published in US10653672B2, “Myogenesis promotor, muscle atrophy inhibitor, medical composition and TAZ activator” (National University Corporation Tokyo Medical and Dental …, priority 2014, dated 2020).

Tested on: C2C12 cells
Assay: Evaluation of myogenesis of C2C12 cells by fusion index
Type: cell-based, mouse
Details: differentiation condition 72 hours, DMSO as 1, average of three
Protocol: (1) C2C12 cells were grown to confluence under growth condition, and then in differentiation condition for 72 hours, in a culture medium added with DMSO, IBS008738 (exemplary compound 1) or exemplary compounds 2 to 44, at a concentration of 1 μM, 3 μM or 10 μM, respectively. Thereafter, the degree of myogenesis was evaluated by a fusion index (a value obtained by dividing the number of nuclei detected in multinucleated myosin heavy chain (MHC)-positive cells by the total number of the nuclei). Specifically, exemplary compounds were divided into five groups, and DMSO and IBS008738 were evaluated in each group as controls. The evaluation was conducted three times, and the average value and the standard deviation of the fusion index was relativized with the measured value of DMSO as 1.
C2C12 cells were passaged in a growth medium (DMEM containing 10% FBS) and differentiated in a differentiation medium (DMEM containing 2% horse serum (Invitrogen)).

Nc1ncn(-c2ccccn2)c1C(=O)c1ccccc1 [exemplary compound 38]
relative fusion index (FI) (Group 5, 1 μM): 1.08 | relative fusion index (FI) (Group 5, 3 μM): 1.12 | relative fusion index (FI) (Group 5, 10 μM): 1.15

NCCc1ccc(-n2cnc(N)c2C(=O)c2ccccc2)cc1 [exemplary compound 28]
relative fusion index (FI) (Group 4, 1 μM): 1.21 | relative fusion index (FI) (Group 4, 3 μM): 1.42 | relative fusion index (FI) (Group 4, 10 μM): 1.64

CC(=O)Nc1ncn(-c2ccc(C)cc2)c1C(=O)c1ccccc1 [exemplary compound 5]
relative fusion index (FI) (Group 1, 1 μM): 0.85 | relative fusion index (FI) (Group 1, 3 μM): 1.50 | relative fusion index (FI) (Group 1, 10 μM): 1.57

O=C(c1ccccc1)c1c(/N=C/N2CCOCC2)ncn1-c1ccc(Br)cc1 [exemplary compound 20]
relative fusion index (FI) (Group 3, 1 μM): 1.26 | relative fusion index (FI) (Group 3, 3 μM): 1.41 | relative fusion index (FI) (Group 3, 10 μM): 1.60

Cc1ccc(-n2cnc(N)c2C#N)cc1 [exemplary compound 26]
relative fusion index (FI) (Group 3, 1 μM): 1.01 | relative fusion index (FI) (Group 3, 3 μM): 1.09 | relative fusion index (FI) (Group 3, 10 μM): 1.44

CC(=O)c1c(/N=C/N(C)C)ncn1-c1ccc(C)cc1 [exemplary compound 25]
relative fusion index (FI) (Group 3, 1 μM): 0.96 | relative fusion index (FI) (Group 3, 3 μM): 1.22 | relative fusion index (FI) (Group 3, 10 μM): 1.44

Cc1ccc(-n2cnc(/N=C/c3ccccc3)c2C(=O)c2ccccc2)cc1 [exemplary compound 6]
relative fusion index (FI) (Group 1, 1 μM): 0.96 | relative fusion index (FI) (Group 1, 3 μM): 1.78 | relative fusion index (FI) (Group 1, 10 μM): 1.42

CC(C)(C)OC(=O)NCCc1ccc(-n2cnc(N)c2C(=O)c2ccccc2)cc1 [exemplary compound 27]
relative fusion index (FI) (Group 4, 1 μM): 0.97 | relative fusion index (FI) (Group 4, 3 μM): 1.67 | relative fusion index (FI) (Group 4, 10 μM): 1.98

Cc1ccc(-n2cnc(N)c2C(=O)c2ccccc2)cc1 [exemplary compound 2]
relative fusion index (FI) (Group 1, 1 μM): 1.62 | relative fusion index (FI) (Group 1, 3 μM): 2.26 | relative fusion index (FI) (Group 1, 10 μM): 2.41

COc1ccc(-n2cnc(N)c2C(=O)c2ccccc2)cc1 [exemplary compound 13]
relative fusion index (FI) (Group 2, 1 μM): 1.22 | relative fusion index (FI) (Group 2, 3 μM): 1.32 | relative fusion index (FI) (Group 2, 10 μM): 1.53

CCOC(=O)c1c(N)ncn1-c1ccc(C)cc1 [exemplary compound 7]
relative fusion index (FI) (Group 1, 1 μM): 1.09 | relative fusion index (FI) (Group 1, 3 μM): 1.55 | relative fusion index (FI) (Group 1, 10 μM): 1.44

COc1ccc(-n2cnc(/N=C/N3CCOCC3)c2C(=O)c2ccccc2)cc1 [exemplary compound 15]
relative fusion index (FI) (Group 2, 1 μM): 1.20 | relative fusion index (FI) (Group 2, 3 μM): 1.58 | relative fusion index (FI) (Group 2, 10 μM): 1.58

COc1ccc(C(=O)c2c(N)ncn2-c2ccc(C)cc2)cc1 [exemplary compound 30]
relative fusion index (FI) (Group 4, 1 μM): 1.27 | relative fusion index (FI) (Group 4, 3 μM): 1.52 | relative fusion index (FI) (Group 4, 10 μM): 1.54

Cc1ccc(-n2c(C)nc(N)c2C(=O)c2ccccc2)cc1 [exemplary compound 16]
relative fusion index (FI) (Group 2, 1 μM): 1.06 | relative fusion index (FI) (Group 2, 3 μM): 1.18 | relative fusion index (FI) (Group 2, 10 μM): 1.60

Cc1ccc(-n2cnc(N)c2C(=O)c2ccc([N+](=O)[O-])cc2)cc1 [exemplary compound 33]
relative fusion index (FI) (Group 4, 1 μM): 0.91 | relative fusion index (FI) (Group 4, 3 μM): 1.20 | relative fusion index (FI) (Group 4, 10 μM): 1.23

Cc1ccc(-n2cnc(N)c2C(=O)c2ccc(Cl)cc2)cc1 [exemplary compound 32]
relative fusion index (FI) (Group 4, 1 μM): 1.16 | relative fusion index (FI) (Group 4, 3 μM): 1.47 | relative fusion index (FI) (Group 4, 10 μM): 1.60

Cc1ccc(-n2cnc(N)c2C(=O)C23CC4CC(CC(C4)C2)C3)cc1 [exemplary compound 37]
relative fusion index (FI) (Group 4, 1 μM): 1.39 | relative fusion index (FI) (Group 4, 3 μM): 1.47 | relative fusion index (FI) (Group 4, 10 μM): 1.77

Cc1ccc(-n2cnc(N)c2C(=O)c2cccc(Cl)c2)cc1 [exemplary compound 31]
relative fusion index (FI) (Group 4, 1 μM): 1.12 | relative fusion index (FI) (Group 4, 3 μM): 1.15 | relative fusion index (FI) (Group 4, 10 μM): 1.40

Nc1ncn(-c2ccc(Cl)cc2Cl)c1C(=O)c1ccccc1 [exemplary compound 35]
relative fusion index (FI) (Group 4, 1 μM): 1.27 | relative fusion index (FI) (Group 4, 3 μM): 1.60 | relative fusion index (FI) (Group 4, 10 μM): 1.55

CNc1ncn(-c2ccc(C)cc2)c1C(=O)c1ccccc1 [exemplary compound 12]
relative fusion index (FI) (Group 2, 1 μM): 1.24 | relative fusion index (FI) (Group 2, 3 μM): 1.43 | relative fusion index (FI) (Group 2, 10 μM): 1.36

Cc1cc(C)c(-n2cnc(N)c2C(=O)c2ccccc2)c(C)c1 [exemplary compound 44]
relative fusion index (FI) (Group 5, 1 μM): 1.11 | relative fusion index (FI) (Group 5, 3 μM): 1.08 | relative fusion index (FI) (Group 5, 10 μM): 1.07

Cc1ccc(-n2cnc(/N=C/N3CCCCC3)c2C(=O)c2ccccc2)cc1 [exemplary compound 4]
relative fusion index (FI) (Group 1, 1 μM): 1.02 | relative fusion index (FI) (Group 1, 3 μM): 1.54 | relative fusion index (FI) (Group 1, 10 μM): 1.51

Cc1ccc(-n2cnc(N)c2C(=O)c2ccc(F)cc2)cc1 [exemplary compound 34]
relative fusion index (FI) (Group 4, 1 μM): 1.38 | relative fusion index (FI) (Group 4, 3 μM): 1.33 | relative fusion index (FI) (Group 4, 10 μM): 1.49

COc1ccc(-n2cnc(/N=C/N(C)C)c2C(=O)c2ccccc2)cc1 [exemplary compound 14]
relative fusion index (FI) (Group 2, 1 μM): 1.18 | relative fusion index (FI) (Group 2, 3 μM): 1.63 | relative fusion index (FI) (Group 2, 10 μM): 1.72

Cc1ccccc1-n1cnc(N)c1C(=O)C12CC3CC(CC(C3)C1)C2 [exemplary compound 42]
relative fusion index (FI) (Group 5, 1 μM): 1.08 | relative fusion index (FI) (Group 5, 3 μM): 1.03 | relative fusion index (FI) (Group 5, 10 μM): 1.10

N#Cc1ccc(-n2cnc(N)c2C(=O)c2ccccc2)cc1 [exemplary compound 39]
relative fusion index (FI) (Group 5, 1 μM): 1.04 | relative fusion index (FI) (Group 5, 3 μM): 1.10 | relative fusion index (FI) (Group 5, 10 μM): 1.09

CCOC(=O)c1c(/N=C/N2CCOCC2)ncn1-c1ccc(C)cc1 [exemplary compound 10]
relative fusion index (FI) (Group 1, 1 μM): 0.80 | relative fusion index (FI) (Group 1, 3 μM): 1.31 | relative fusion index (FI) (Group 1, 10 μM): 0.85

Cc1ccc(-n2cnc(N(C)C)c2C(=O)c2ccccc2)cc1 [exemplary compound 18]
relative fusion index (FI) (Group 3, 1 μM): 1.34 | relative fusion index (FI) (Group 3, 3 μM): 1.52 | relative fusion index (FI) (Group 3, 10 μM): 1.85

Nc1ncn(-c2ccc(Br)cc2)c1C(=O)c1ccccc1 [exemplary compound 17]
relative fusion index (FI) (Group 2, 1 μM): 1.51 | relative fusion index (FI) (Group 2, 3 μM): 2.14 | relative fusion index (FI) (Group 2, 10 μM): 2.07

Cc1ccc(-n2cnc(N)c2C(=O)c2ccccc2)c(C)c1 [exemplary compound 43]
relative fusion index (FI) (Group 5, 1 μM): 1.07 | relative fusion index (FI) (Group 5, 3 μM): 1.11 | relative fusion index (FI) (Group 5, 10 μM): 1.12
